Where a SMILES comes first, the peptide text is derived from it. [ ]: non-standard residue; d: D form. Nleu = CC(C)CNCC(=O)O; Nlys = NCCCCNCC(=O)O
Columns and labels:
E. coli W3110 = assay: DiSC3(5) inner membrane depolarization assay; type: cell-based, Escherichia coli; conditions: E. coli W3110, 2 μM DiSC3(5)
Procedure: Figure 4 Interactions of peptide–peptoid hybrids with bacterial outer and inner membranes of E. coli. (a, b) NPN outer membrane permeability assay. E. coli W3110 bacteria were treated with increasing compound concentrations in the presence of 10 μM NPN. The fluorescence intensity (λex = 340 nm, λem = 415 nm) was measured within 5 min. Data represent mean ± SD, n = 3. (c, d) DiSC3(5) inner membrane depolarization assay. E. coli W3110 bacteria were treated with increasing compound concentrations in the presence of 2 μM DiSC3(5). The fluorescence intensity (λex = 610 nm, λem = 660 nm) was measured within 5 min after treatment, and the data represent mean ± SD, n = 3.
A single colony of P. aeruginosa PAO1 and E. coli W3110 was grown overnight with shaking (150 rpm) in LB broth (5 mL) at 37 °C. A 100 μL portion of the overnight culture was regrown in 10 mL of LB broth with shaking (200 rpm) to the exponential phase (OD600 = 1, corresponding to 10^9 CFU/mL). Bacteria were washed once with HEPES buffer (5 mM HEPES, 5 mM glucose, pH 7.4) and diluted to an OD600 = 0.5. Stock solution of 10 mM of 3,3′-dipropylthiadicarbocyanine iodide (DiSC3(5), purchased from Sigma) was prepared in DMSO. Stock solutions of 2 mg/mL of the compounds were prepared in sterilized milli-Q water and diluted to the beginning concentration of 128 μg/mL in 200 μL of HEPES buffer containing 4 μM of the fluorescent probe DiSC3(5). The diluted samples were added to the first well of 96-well plates (black wells, flat bottom, BRAND GmbH Wertheim, Germany) and diluted serially by 1/2. 100 μL of the bacterial suspension in HEPES buffer (without fluorophore) was added to each well. In this case, the final OD of bacteria was 0.25, the final concentration of peptide in the first column was 64 μg/mL, and DiSC3(5) was 2 μM. The control wells are buffer containing DiSC3(5) and bacterial suspension containing DiSC3(5) in HEPES buffer. The plate was measured with a Tecan instrument Infinite M1000 within 5 min. […] The assay was measured in triplicate and repeated at least two times.[65],[75]

P. aeruginosa PAO1 [1] = assay: Transmission electron microscopy (TEM); type: cell-based, Pseudomonas aeruginosa; conditions: P. aeruginosa PAO1, 10 × MIC, […] MH at pH 8.5, 2 h at 37 °C
Procedure: Scale bars are 500 nm and 1 μm. Red arrows: membrane perturbations. Blue arrows: intracellular aggregation. Yellow arrows: empty area within the cell.
(§1) Just before the samples were further prepared for the microscopy, surviving bacteria were quantified by plating 10-fold dilutions of samples in sterilized normal saline (NaCl 0.9%) on LB agar plates. […] The assay was performed in triplicate. Each bacteria sample was centrifuged at 12,000 rpm for 3 min, and the supernatant was discarded. The samples were then further processed and imaged using our previously described protocol.[64]

P. aeruginosa PAO1 [2] = assay: Bacterial count after treatment, before TEM sample preparation; type: cell-based, Pseudomonas aeruginosa; conditions: P. aeruginosa PAO1, […] MH pH 8.5, 10x MIC
Procedure: as §1
8. Transmission electron microscopy (TEM)
Table S4: Bacterial counts, 2 hours after treatment, before TEM sample preparation. Data represents triplicates.
Bacteria count after treatment at 10x MIC and 2 h of incubation at 37 °C
Control (non-treated cells) 1 × 10^8 CFU (100)

Molecule	Inner membrane depolarization (DiSC3(5)) (E. coli W3110)	TEM micrographs, changes in treated bacteria (P. aeruginosa PAO1 [1])	Bacteria count after treatment at 10x MIC and 2 h of incubation at 37 °C (% of control) (P. aeruginosa PAO1 [2])
CC(C)C[C@H](NC(=O)[C@H](CC(C)C)NC(=O)[C@H](CC(C)C)NC(=O)[C@H](CCCCN)NC(=O)[C@H](CC(C)C)NC(=O)[C@H](CC(C)C)NC(=O)CN(CCCCN)C(=O)[C@H](CC(C)C)NC(=O)[C@H](CC(C)C)NC(=O)CN(CCCCN)C(=O)CNCCCCN)C(N)=O [EB6, kkLLkLLKLLL] (H-[Nlys][Nlys]LL[Nlys]LLKLLL-NH2)	strongly depolarized the inner membrane		
CC(C)C[C@H](NC(=O)CN(CC(C)C)C(=O)[C@H](CC(C)C)NC(=O)CN(CCCCN)C(=O)[C@H](CC(C)C)NC(=O)CN(CC(C)C)C(=O)[C@H](CCCCN)NC(=O)CN(CC(C)C)C(=O)[C@H](CC(C)C)NC(=O)CN(CCCCN)C(=O)[C@@H](N)CCCCN)C(N)=O [EB9, KkLlKlLkLlL] (H-K[Nlys]L[Nleu]K[Nleu]L[Nlys]L[Nleu]L-NH2)	partly depolarized the inner membrane	aggregation of intracellular components as the major effect	0.01 % of control
CC(C)CN(CC(N)=O)C(=O)CN(CC(C)C)C(=O)CN(CC(C)C)C(=O)CN(CCCCN)C(=O)CN(CC(C)C)C(=O)CN(CC(C)C)C(=O)CN(CCCCN)C(=O)CN(CC(C)C)C(=O)CN(CC(C)C)C(=O)CN(CCCCN)C(=O)CNCCCCN [EB11, kkllkllklll] (H-[Nlys][Nlys][Nleu][Nleu][Nlys][Nleu][Nleu][Nlys][Nleu][Nleu][Nleu]-NH2)	partly depolarized the inner membrane		
H-KKLLKLLKLLL-NH2 [ln65, reference compound]		strong membrane-disruptive activity	0.01 % of control
